Experimental data reported in patent publication US10156566B2, “Detoxification of microbial virulence factors in oral cavity” (priority 2015, dated 2018).
Where “and” joins values, the source holds several entries; their conditions need not be identical. Identical values can stand only once. Like-named read-outs stand apart in the source and are kept apart here.

How the values were obtained:
THP-1 cells = experiment: LPS stimulated cytokine production in THP-1 cells with citrulline; format: cell-based, human; settings: 0.3 mM to 9 mM; 300 ng/ml LPS; 24 hours
Description: Citrulline was purchased from Sigma-Aldrich (St. Louis, Mo.). THP1-Dual™ cells were purchased from Invivogen (San Diego, Calif.). Cells were cultured following the manufacturer's instruction, as described in EXAMPLE 11. For treatment, 0.3 mM to 9 mM of citrulline were first added to the culture medium. […] After 24 hours of treatment, media was collected and analyzed for cytokine production using 9-plex kit (Meso Scale Diagnostics Rockville, Md.).

NFkB-SEAP reporter gene = experiment: THP1-Dual reporter cells, NFkB-SEAP; format: cell-based, human; settings: dose dependent
Description: (§1) THP1 NFkB-SEAP and IRF-Lucia™ Reporter Monocytes were purchased from Invivogen, San Diego, Calif. THP1-Dual cells were derived from the human THP-1 monocyte cell line by stable integration of two inducible reporter constructs. THP1-Dual cells feature the Lucia gene under the control of an ISG54 (interferon-stimulated gene) minimal promoter in conjunction with five interferon-stimulated response elements. THP1-Dual cells also express a SEAP reporter gene driven by an IFN-b minimal promoter fused to five copies of the NF-kB consensus transcriptional response element and three copies of the c-Rel binding site. As a result, THP1-Dual cells allow the simultaneous study of the NFkB pathway, by monitoring the activity of SEAP, and the interferon regulatory factor (IRF) pathway, by assessing the activity of Lucia (IRF-Luc). Both reporter proteins are readily measurable in the cell culture supernatant.
(§2) Cells were passed every 3 to 4 days by inoculating 300,000-500,000 cells/ml into a fresh T75 flask with 15 ml of fresh growth medium. […] After incubation for 18 hours at 37° C. and 5% CO2, secreted luciferase and SEAP were quantified with commercially available assay kits (QUANTI-Luc of Invivogen, San Diego, Calif. for luciferase; SEAP Reporter Gene Assay of Cayman Chemical Co., Ann Arbor, Mich. for SEAP).

P. gingivalis LPS 1690 = format: biochemical
Description: (§3) The Limulus Amebocyte Lysate Assay (LAL) is an assay to determine the total amount of lipopolysaccharide (LPS) in the sample tested (Pierce LAL Chromogenic Endotoxin Quantitation Kit, ThermoFischer Scientific, Waltham, Mass.). The assay was performed following manufacturer's instruction. Ninety-six-well microplates were first equilibrated in a heating block for 10 min at 37° C. Fifty μl each of standard or sample was dispensed into the microplate wells and incubated with the plate covered for 5 min at 37° C. Then 50 μl LAL was added to each well.
(§4) Plates were shaken gently and incubated for 10 min at 37° C. 100 μl of chromogenic substrate was added and incubated for 6 min at 37° C.
(§5) The Thermo Scientific Pierce LAL Chromogenic Endotoxin Quantitation Kit is a quantitative endpoint assay for the detection of LPS, which catalyzes the activation of a proenzyme in the modified Limulus Amebocyte Lysate (LAL). The activated proenzyme then splits p-Nitroaniline (pNA) from the colorless substrate, Ac-Ile-Glu-Ala-Arg-pNA. […] Then 50 μl LAL was added to each well. Plates were shaken gently and incubated for 10 min at 37° C. 100 μl of chromogenic substrate was added and incubated for 6 min at 37° C.

TLR2 = target: T1, TLR2 (Homo sapiens, UniProt O60603); format: cell-based; settings: stannous 1000 uM; P. gingivalis LPS
T1 construct: host or cells: human HEK 293T cells
Description: The cell line is named here as TLR2-SEAP. The reporter gene encodes a secreted enzyme, called embryonic alkaline phosphatase or SEAP. The SEAP reporter is placed under the control of the interferon-β minimal promoter fused to five NFkB and AP-1-binding sites. Furthermore, a CD14 co-receptor gene was transfected into the reporter gene cells expressing TLR2, as CD14 has been identified as a co-receptor for TLR2 ligands to enhance the TLR response. The CD14 co-receptor is needed to transfer LTA to TLR2 receptors. The recombinant TLR2 binds its ligand, or distinct pathogen-associated molecule, initiates a chain of responses, leading to recruitment of NFkB and API transcription factors to the reporter gene promoter, which induce expression of SEAP.
For treatment with LTA, wells of a 96-well plate were seeded with 10,000 cells/well in 100 μL of growth medium. […] On day 4, medium (100 μL) was changed to DMEM medium without fetal calf serum. […] Samples were taken 24 hours later, following addition of samples. Expression of the reporter gene (SEAP) was quantified with a commercially available kit (SEAP Reporter Gene Assay of Cayman Chemical Co., Ann Arbor, Mich.).

TLR4 [1] = target: T2, TLR4 (Homo sapiens, UniProt O00206+Q9Y6Y9); experiment: cell-based; format: cell-based; design: host or cells: HEK-Blue-hTLR4 (HEK 293T); settings: for Average fluorescence intensity (FI): Control 1027
Target sequence in this assay (O00206 24-839): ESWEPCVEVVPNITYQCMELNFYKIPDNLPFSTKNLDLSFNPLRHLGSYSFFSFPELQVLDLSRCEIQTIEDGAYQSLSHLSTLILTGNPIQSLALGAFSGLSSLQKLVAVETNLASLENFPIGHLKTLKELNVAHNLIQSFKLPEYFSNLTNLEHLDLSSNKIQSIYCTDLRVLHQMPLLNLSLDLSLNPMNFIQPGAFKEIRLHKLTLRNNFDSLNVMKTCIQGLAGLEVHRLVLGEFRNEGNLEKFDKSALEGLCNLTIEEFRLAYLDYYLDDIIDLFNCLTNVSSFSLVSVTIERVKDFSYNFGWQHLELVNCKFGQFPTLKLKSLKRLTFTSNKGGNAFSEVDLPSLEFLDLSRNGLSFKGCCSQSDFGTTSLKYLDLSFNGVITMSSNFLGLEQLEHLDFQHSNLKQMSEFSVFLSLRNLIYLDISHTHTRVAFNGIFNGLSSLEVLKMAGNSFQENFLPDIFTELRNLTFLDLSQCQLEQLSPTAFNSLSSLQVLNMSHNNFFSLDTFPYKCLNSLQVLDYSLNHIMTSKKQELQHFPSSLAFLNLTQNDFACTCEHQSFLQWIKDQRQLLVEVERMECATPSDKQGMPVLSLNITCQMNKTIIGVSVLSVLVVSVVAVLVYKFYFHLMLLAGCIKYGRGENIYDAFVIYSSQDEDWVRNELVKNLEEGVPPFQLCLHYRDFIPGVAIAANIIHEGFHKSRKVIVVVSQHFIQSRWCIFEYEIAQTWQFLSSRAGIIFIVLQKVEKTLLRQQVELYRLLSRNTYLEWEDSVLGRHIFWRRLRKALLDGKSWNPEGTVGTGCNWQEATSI
Target sequence in this assay (Q9Y6Y9 17-160): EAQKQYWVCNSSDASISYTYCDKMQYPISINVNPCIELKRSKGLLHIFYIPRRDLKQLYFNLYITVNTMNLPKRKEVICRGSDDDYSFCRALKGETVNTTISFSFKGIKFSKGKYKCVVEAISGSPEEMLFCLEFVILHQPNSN
Description: Stannous fluoride, Cetylpyridium chloride (CPC) and Triclosan were purchased from Sigma-Aldrich, St. Louis, Mo. […] The growth medium: DMEM, with 4.5 g/l glucose, supplemented 10% fetal bovine serum, 50 U/ml penicillin and streptomycin, 100 μg/ml Normocin, and 2 mM L-glutamine, purchased from Thermo Fisher, Waltham, Mass.

TLR4 [2] = target: T2, TLR4; format: cell-based; design: host or cells: human HEK 293T cells; settings: for reduction of P. gingivalis LPS activation on the TLR4 reporter system: P. gingivalis LPS 500 ng/ml
Target sequence in this assay (O00206 24-839): as the sequence (O00206 24-839) above
Target sequence in this assay (Q9Y6Y9 17-160 limits assumed): as the sequence (Q9Y6Y9 17-160) above
Description: The cell line is named here as TLR4-SEAP. The reporter gene encodes a secreted enzyme, called embryonic alkaline phosphatase or SEAP. The SEAP reporter is placed under the control of an IL-12 p40 minimal promoter fused to five NF-κB and AP-1-binding sites. Furthermore, the TLR4-SEAP cell line also contains a CD14 co-receptor gene, which is needed to transfer LPS to TLR4 receptors. The recombinant TLR binds its ligand, or distinct pathogen-associated molecule, initiates a chain of responses, leading to recruitment of NFkB and API transcription factors to the reporter gene promoter, which induce expression of SEAP.
For treatment, wells of a 96-well plate were seeded with 10,000 cells/well in 100 μL of growth medium. […] On day 4, medium was changed to assay medium (90 μl), which is the DMEM medium without fetal calf serum. […] 10 μl of the bacteria, LPS and culture medium of bacterial growth were added to the TLR4-SEAP cells. Samples were taken 24 hours later, following addition of LPS, bacteria, and culture medium. Expression of the reporter gene (SEAP) was quantified with a commercially available kit (SEAP Reporter Gene Assay of Cayman Chemical Co., Ann Arbor, Mich.).
EC50 was calculated using GraphPad Prism software (GraphPad Software, La Jolla, Calif.).
Tests were conducted to understand whether stannous fluoride could reduce LPS's ability to trigger proinflammatory responses in host cells.

human primary monocytes = experiment: LPS-stimulated cytokine production in human primary monocytes; format: cell-based
Description: The primary human monocytes were purchased from Astarte Biologics (Bothell, Wash.). […] The medium was harvested at 24 hours after adding LPS and SnF2, and analyzed for proinflammatory cytokines in a kit following manufacturer's instruction (Meso Scale Diagnostics, Rockville, Md.).

E. coli LPS [3] = system: E. coli LPS
Description: 0.7 ul of the sample solution was spotted on a MALDI plate, air-dried, and analyzed in negative ion mode using a MALDI-TOF/TOF 4800 plus system (AB-Sciex, Framingham, Mass., USA). Typical data acquisition uses mass scan range 500-3000 Da and a laser power of 4500. Data was collected in an automated fashion using random sampling over the sample spot with 250 shots per subspectrum and a total of 2500 shots per spectrum.

E. coli LPS [4] = format: biochemical
Description: as §3, §4, §5

E. coli LPS [5] = experiment: Displacement of LPS from binding to BODIPY TR cadaverine (Tables 3, 9, 12, 13); settings: 0.63 mM; E. coli LPS 15 μg/ml
[6] = system: IRF-luciferase reporter gene; experiment: THP1-Dual reporter cells, IRF-Lucia luciferase; format: cell-based, human
Description: as §1, §2

TLR5 = target: T3, TLR5 (Homo sapiens, UniProt O60602); experiment: TLR5-NFkB-SEAP reporter gene assay in HEK 293T cells; format: cell-based
T3 construct: host or cells: human HEK 293T cells
Description: The cell line was named as TLR5-NFkB-SEAP.
S. subtilis and S. aureus flagellin were added at a range of concentration from 0.97 ng to 1 μg/ml. […]

T3 sequence (O60602 21-858): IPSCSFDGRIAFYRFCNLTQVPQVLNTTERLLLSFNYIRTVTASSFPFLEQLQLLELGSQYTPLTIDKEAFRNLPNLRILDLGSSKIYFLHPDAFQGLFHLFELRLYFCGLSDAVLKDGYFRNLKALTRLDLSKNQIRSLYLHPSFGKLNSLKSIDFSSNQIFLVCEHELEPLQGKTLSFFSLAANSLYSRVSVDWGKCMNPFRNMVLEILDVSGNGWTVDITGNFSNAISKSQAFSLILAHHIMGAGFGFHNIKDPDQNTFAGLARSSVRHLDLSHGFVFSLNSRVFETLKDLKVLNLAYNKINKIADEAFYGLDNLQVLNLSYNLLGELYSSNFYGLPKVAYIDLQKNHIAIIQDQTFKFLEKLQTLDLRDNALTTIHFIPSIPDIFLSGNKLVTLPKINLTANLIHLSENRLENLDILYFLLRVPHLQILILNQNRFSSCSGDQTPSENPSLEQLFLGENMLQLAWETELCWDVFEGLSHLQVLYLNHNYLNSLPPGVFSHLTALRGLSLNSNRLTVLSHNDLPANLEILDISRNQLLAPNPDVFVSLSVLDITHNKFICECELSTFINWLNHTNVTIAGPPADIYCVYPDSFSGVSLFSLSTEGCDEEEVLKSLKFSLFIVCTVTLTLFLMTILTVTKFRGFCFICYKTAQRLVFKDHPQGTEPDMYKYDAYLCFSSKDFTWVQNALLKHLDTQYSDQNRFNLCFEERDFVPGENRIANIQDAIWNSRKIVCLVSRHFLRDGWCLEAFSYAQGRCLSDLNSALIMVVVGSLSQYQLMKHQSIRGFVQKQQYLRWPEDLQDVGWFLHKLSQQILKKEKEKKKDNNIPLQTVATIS
T1 sequence (O60603 21-784): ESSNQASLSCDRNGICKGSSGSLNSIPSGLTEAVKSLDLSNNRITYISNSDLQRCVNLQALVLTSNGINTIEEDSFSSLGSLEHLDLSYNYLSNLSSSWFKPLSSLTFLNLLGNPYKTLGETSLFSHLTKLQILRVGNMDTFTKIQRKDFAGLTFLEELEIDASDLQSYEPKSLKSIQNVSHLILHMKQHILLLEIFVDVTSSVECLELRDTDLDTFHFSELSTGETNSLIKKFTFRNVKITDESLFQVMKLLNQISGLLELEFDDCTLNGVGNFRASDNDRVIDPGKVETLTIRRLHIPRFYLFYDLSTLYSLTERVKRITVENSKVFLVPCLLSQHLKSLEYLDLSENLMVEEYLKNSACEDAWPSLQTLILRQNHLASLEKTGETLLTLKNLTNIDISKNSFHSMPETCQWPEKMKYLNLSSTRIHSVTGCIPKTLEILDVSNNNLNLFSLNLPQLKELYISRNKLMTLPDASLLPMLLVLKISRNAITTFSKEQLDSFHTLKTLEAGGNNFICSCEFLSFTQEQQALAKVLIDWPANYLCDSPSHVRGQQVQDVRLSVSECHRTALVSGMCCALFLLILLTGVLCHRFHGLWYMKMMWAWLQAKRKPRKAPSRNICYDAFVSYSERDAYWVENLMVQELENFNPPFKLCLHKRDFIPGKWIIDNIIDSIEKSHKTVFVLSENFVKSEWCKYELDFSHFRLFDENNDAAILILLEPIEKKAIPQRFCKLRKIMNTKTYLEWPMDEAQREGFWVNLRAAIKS

## NC(=O)NCCC[C@H](N)C(=O)O [Citrulline]
THP-1 cells
  effect on P. gingivalis LPS 1690 stimulated proinflammatory cytokine production (IL-6, TNF-α, IL-12p70, IL-10, IL-2, IFN-r, IL-1β): inhibited

## [F][Sn][F] [Tin (II) fluoride]
NFkB-SEAP reporter gene
  expression of the NFKB-SEAP reporter gene by LPS and LTA in THP-1 dual cells: inhibited
P. gingivalis LPS 1690
  Inhibition of LAL activity %: 60% and 49%
TLR2
  level of P. gingivalis induction of TLR-2: decreased
TLR4 [1]
  fluorescence intensity of labeled LPS on HEK-Blue-hTLR4 cells: reduced fluorescence intensity significantly
TLR4 [1]; 500 μM
  % of control: 64.5%
  Average fluorescence intensity (FI): 662
TLR4 [2]; 3.2 mM
  reduction of P. gingivalis LPS activation on the TLR4 reporter system: about 50%
TLR4 [2]; […]
  reduction of P. gingivalis LPS activation on the TLR4 reporter system: about 50%
TLR4 [2]; stannous 500 uM or higher, 100 ng/ml E. coli LPS
  level of E. coli induction of TLR-4: decreased
Human primary monocytes; 100 ng E. coli LPS or P. gingivalis LPS 1690, 24 hours
  cytokine production stimulated by LPS in human primary monocytes: inhibited
Human primary monocytes; dose-dependent
  suppression of LPS on IL-8 production in human primary monocytes: reversed
E. coli LPS [3]
  binding to E. coli LPS (MALDI-TOF): binds to E. coli LPS
E. coli LPS [4]
  Inhibition of LAL activity %: 92% and 87%
E. coli LPS [5]
  Displacement % of LPS from binding to BODIPY TR cadaverine: 12.69%
[6]
  luciferase production in THP-1 dual cells stimulated by E. coli LPS: inhibited

## Oc1cc(Cl)ccc1Oc1ccc(Cl)cc1Cl [Triclosan (irgasan)]
P. gingivalis LPS 1690
  Inhibition of LAL activity %: 0%
TLR4 [1]; 500 μM
  Average fluorescence intensity (FI): 1021
TLR4 [1]; HEK-Blue hTLR4, read-out: % of control
  remaining activity at 500 µM: 99.4%
E. coli LPS [4]
  Inhibition of LAL activity %: 10% and 0%

## O.O.O=C([O-])CC(O)(CC(=O)[O-])C(=O)[O-].O=C([O-])CC(O)(CC(=O)[O-])C(=O)[O-].[Zn+2].[Zn+2].[Zn+2] [zinc citrate, dihydrate]
P. gingivalis LPS 1690; citrate, dihydrate
  Inhibition of LAL activity %: 104% and 57%
E. coli LPS [4]; citrate, dihydrate
  Inhibition of LAL activity %: 104% and 82%

## Flagellin from B. subtilis: flagellin from B. subtilis
TLR5; at 5 hours
  EC50 of flagellin on TLR5: 0.02 ng/mL
TLR5; at 23 hours
  EC50 of flagellin on TLR5: 0.014 ng/mL
